System: KRAS PDC multicell spheroid viability
Test: Anticancer human tumor 825966-067-R-J1-PDC patient-derived colon carcinoma cell line growth inhibition [KRAS2]
Conditions: for IC50: curve of first compound; for viability, T/C: stronger effect = lower value
Text: Multicellular complex tumor spheroid response to RAS pathway inhibitors in combination with a targeted agents in patient-derived cell lines with oncogenic KRAS variants from multiple cancer types
A high-throughput screen of multi-cell type tumor spheroids was designed to identify active combinations of targeted small molecules and KRAS pathway inhibitors. Complex spheroids include a stromal component modeled by human endothelial cells (HUVEC) and fibroblasts modeled by human mesenchymal stem cells (MSCs). The concentration ranges selected for each drug and investigational agent were based upon clinically achievable concentrations if the clinical Cmax of the agent was known.
Compounds. The drugs and investigational agents: BI-3406 (NSC825286), BAY-293 (NSC824723), batoprotafib (TNO155; NSC825523), sotorasib (AMG 510; NSC818433), MRTX1257 (NSC819558), elimusertib (BAY 1895344; NSC800525), molibresib (GSK525762; NSC774829), temuterkib (LY3214996; NSC803410), venetoclax (NSC766270), alisertib (NSC759677), olaparib (NSC753686), talazoparib (NSC767125), erdafitinib (NSC781556), ipatasertib (NSC767898), cabozantinib (NSC761068), nintedanib (NSC756659), abemaciclib (NSC768073), docetaxel (NSC628503), trametinib (NSC758246), and sapanisertib (NSC764658) were obtained from the National Cancer Institute (NCI) Developmental Therapeutics Program Chemical Repository. The FDA-approved anticancer drug set is available from the Developmental Therapeutics Program. […] The stock solutions were prepared in dimethyl sulfoxide (DMSO, Sigma-Aldrich, St. Louis, MO, cat. D2650) at 800-fold the tested concentration and stored at -70 degrees C prior to their use. All drugs and investigational agents were tested over a range starting from a high concentration at or near the clinical Cmax and decreasing in half-log increments. If the clinical Cmax for an agent had not been determined, the highest concentration tested was 10 microM.
Cell Culture. All cells were maintained in an incubator at 37 degrees C and 5% CO2 with 95% humidity. The PDC lines were cultured according to standard operating procedures established by the NCI PDMR (https://pdmr.cancer.gov/sops/default.htm). Briefly, all PDCs were thawed and cultured in Matrigel-coated flasks prepared with a working solution of 1X Ham's F-12 nutrient mix, without supplementation (Invitrogen, Waltham, MA, cat. 11765054), 100 U/mL penicillin-streptomycin (Invitrogen, cat. 15140122), and 2.5% Matrigel (Corning Inc., Corning, NY, cat. 354248) for the first three passages. All PDCs were cultured in complete DMEM/F-12 media containing advanced DMEM/F-12 (Invitrogen, cat. 12634028), 4.9% defined fetal bovine serum, heat inactivated (HyClone Laboratories Inc., Logan, UT, cat. SH30070.03HI), 389 ng/mL hydrocortisone (Sigma-Aldrich, cat. H4001), 9.7 ng/mL human EGF recombinant protein (Invitrogen, cat. PHG0313), 23.4 microg/mL adenine (Sigma-Aldrich, cat. A2786), 97.3 U/mL penicillin-streptomycin (Invitrogen, cat. 15140122), 1.9 mM L-glutamine (Invitrogen, cat. 25030081), and 9.7 microM Y-27632 dihydrochloride (Tocris Bioscience, Bristol, United Kingdom, cat. 1254). The PDCs were cultured in complete DMEM/F12 media without 9.7 microM Y-27632 dihydrochloride for at least two passages prior to the screen. The established cell line HOP-62 was cultured in RPMI 1640 medium, HEPES (Invitrogen, cat. 22400105) with 10% defined fetal bovine serum (HyClone Laboratories Inc., cat. SH30070.03) and 2 mM L-glutamine (Invitrogen, cat. 25030081). The pooled donor HUVEC were cultured in endothelial cell growth medium 2 (PromoCell, Heidelberg, Germany, cat. C-22011) and the hMSC were cultured in mesenchymal stem cell growth medium 2 (PromoCell, cat. C-28009). For all experiments, HUVEC and hMSC were used at passages </=5, while the malignant cell lines were used at passages </=15. […]

[1] = second compound 0.1 µM, first compound 0.0316 µM
[2] = second compound 0.1 µM, first compound 0.1 µM
[3] = second compound 0.1 µM, first compound 0.316 µM
[4] = second compound 0.1 µM, first compound 1 µM
[5] = second compound 0.1 µM, first compound 3.16 µM
[6] = second compound 0.316 µM, first compound 0.0316 µM
[7] = second compound 0.316 µM, first compound 0.1 µM
[8] = second compound 0.316 µM, first compound 0.316 µM
[9] = second compound 0.316 µM, first compound 1 µM
[10] = second compound 0.316 µM, first compound 3.16 µM
[11] = second compound 1 µM, first compound 0.0316 µM
[12] = second compound 1 µM, first compound 0.1 µM
[13] = second compound 1 µM, first compound 0.316 µM
[14] = second compound 1 µM, first compound 1 µM
[15] = second compound 1 µM, first compound 3.16 µM
[16] = second compound 3.16 µM, first compound 0.0316 µM
[17] = second compound 3.16 µM, first compound 0.1 µM
[18] = second compound 3.16 µM, first compound 0.316 µM
[19] = second compound 3.16 µM, first compound 1 µM
[20] = second compound 3.16 µM, first compound 3.16 µM
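Note: spheroids exposed to compounds for 7 days.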
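Throughout, for viability, T/C: 100% = DMSO vehicle control viability.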

Row | Compound | IC50 (second compound 0.1 µM) | IC50 (second compound 0.316 µM) | IC50 (second compound 1 µM) | IC50 (second compound 3.16 µM) | viability, T/C [1] | viability, T/C [2] | viability, T/C [3] | viability, T/C [4] | viability, T/C [5] | viability, T/C [6] | viability, T/C [7] | viability, T/C [8] | viability, T/C [9] | viability, T/C [10] | viability, T/C [11] | viability, T/C [12] | viability, T/C [13] | viability, T/C [14] | viability, T/C [15] | viability, T/C [16] | further results
1 | O=C(c1cc(Cc2n[nH]c(=O)c3ccccc23)ccc1F)N1CCN(C(=O)C2CC2)CC1 + CC1OCC2(CCN(c3cnc(Sc4ccnc(N)c4Cl)c(N)n3)CC2)C1N | > 10000 nM | > 10000 nM | > 10000 nM | > 10000 nM | 78.2% | 67.3% | 82% | 71.1% | 80.6% | 79.2% | 76.2% | 92.6% | 67.6% | 85% | 77.8% | 91.5% | 75.7% | 68% | 62.5% | 105% | IC50 (second compound 10 µM): 985 nM; viability, T/C (second compound 0.1 µM, first compound 10 µM): 81.4%; viability, T/C (second compound 0.316 µM, first compound 10 µM): 86.6%; viability, T/C (second compound 1 µM, first compound 10 µM): 82.2%; viability, T/C [17]: 109%; viability, T/C [18]: 95.1%; viability, T/C [19]: 102%; viability, T/C [20]: 102%; viability, T/C (second compound 3.16 µM, first compound 10 µM): 78.1%; viability, T/C (second compound 10 µM, first compound 0.0316 µM): 104%; viability, T/C (second compound 10 µM, first compound 0.1 µM): 89.2%; viability, T/C (second compound 10 µM, first compound 0.316 µM): 77.5%; viability, T/C (second compound 10 µM, first compound 1 µM): 54.9%; viability, T/C (second compound 10 µM, first compound 3.16 µM): 17.4%; viability, T/C (second compound 10 µM, first compound 10 µM): 17.6%
2 | CC1COCCN1c1cc(-c2ccnn2C)c2ccnc(-c3ccn[nH]3)c2n1 (stereo not given) + C=CC(=O)N1CCN(c2nc(OCC3CCCN3C)nc3c2CCN(c2cccc4cccc(C)c24)C3)CC1CC#N | > 3160 nM | 208 nM | 89.5 nM | 14.5 nM | 114% | 63.6% | 46.8% | 70.6% | 49.5% | 119% | 65% | 41.6% | 61.1% | 21.7% | 123% | 39.6% | 56.3% | 39.3% | 34.4% | 20.2% | IC50 (second compound 0.0316 µM): > 3160 nM; viability, T/C (second compound 0.0316 µM, first compound 0.01 µM): 118%; viability, T/C (second compound 0.0316 µM, first compound 0.0316 µM): 102%; viability, T/C (second compound 0.0316 µM, first compound 0.1 µM): 69.1%; viability, T/C (second compound 0.0316 µM, first compound 0.316 µM): 56.7%; viability, T/C (second compound 0.0316 µM, first compound 1 µM): 73.8%; viability, T/C (second compound 0.0316 µM, first compound 3.16 µM): 46.4%; viability, T/C (second compound 0.1 µM, first compound 0.01 µM): 101%; viability, T/C (second compound 0.316 µM, first compound 0.01 µM): 94.5%; viability, T/C (second compound 1 µM, first compound 0.01 µM): 120%; viability, T/C (second compound 3.16 µM, first compound 0.01 µM): 64.1%; viability, T/C [17]: 23.1%; viability, T/C [18]: 9.83%; viability, T/C [19]: 15.4%; viability, T/C [20]: 25.3%
